Source: a melting point compilation (Tetko et al.)

melting point [°C] | SMILES
195 to 197 | CN1C(=O)/C(=N\NC(=O)c2cccnc2)c2ccccc21
111 to 113 | Cn1cc(SSc2cnn(C)c2)cn1
63 to 65 | NCCCS(=O)(=O)Cc1ccccc1
139 to 141 | CCCOc1ccc2[nH]cc(C=O)c2c1
107 to 109 | CCC1CSC(Nc2ccc(Cl)c(Cl)c2)=N1 (stereo unspecified)
119 to 121 | Cc1nn(CC(F)(F)F)cc1C(=O)O
96 to 98 | CC1(c2ccc(S(C)(=O)=O)cc2)CO1 (stereo unspecified)
264 to 266 | Cc1oc(-c2ccc(Cl)c(Cl)c2)nc1C(=O)O
114 to 116 | N#Cc1ccc(Cl)cc1NCC1CCOC1 (stereo unspecified)
189 to 191 | CC(=O)Nc1cc(C)c(C)cc1[N+](=O)[O-]
104 to 106 | N#CC=Cc1cccnc1
155 to 157 | O=C(O)CCC(=O)N1CCN(S(=O)(=O)c2ccccc2)CC1
222 to 224 | COc1ccc(/C=C/C(=O)O)cc1F
98 to 100 | Cc1nc(S(=O)(=O)Oc2c(F)c(F)c(F)c(F)c2F)sc1C
173 to 175 | O=[N+]([O-])c1ccc2c(S(=O)(=O)Cl)c[nH]c2c1
105 to 107 | O=C(O)C(=O)c1ccc(Br)cc1
169 to 173 | CCC1(CC)NC(=O)N(CC(=O)O)C1=O
249 to 251 | Cc1c(C)n(-c2ccc(Cl)cc2)c2ncnc(N)c12
214 to 216 | NC(=O)COc1ccc(Cl)cc1S(N)(=O)=O
97 to 99 | Cc1ccc(OCCCC(=O)Nc2ccc(CN)cc2)cc1
120 to 122 | COc1ccc(C(C)=O)cc1NC(C)=O
215 to 217 | O=C1Nc2c(Br)cc(F)cc2C1=O
79 to 81 | NCC(=O)Nc1cccc(Br)c1
75 to 77 | O=[N+]([O-])c1ccc(S(=O)(=O)Cl)c(Cl)c1

melting point [°C] | SMILES
66 to 68 | OC(Cc1ccc(Cl)cc1)C(F)(F)F (stereo unspecified)
134 to 136 | Sc1nnc(-c2ccco2)n1C1CCCCC1
70 to 72 | Cn1cc(S(=O)(=O)Cl)c([N+](=O)[O-])n1
306 to 308 | N#Cc1ccccc1S(N)(=O)=O
149 to 151 | CCCCc1nc2ccccc2[nH]1
119 to 121 | C=CCSc1nnc(N)s1
57 to 61 | O=S(=O)(c1ccc(CBr)cc1)C(F)F
169 to 171 | O=C(O)c1ccc(COc2ccccc2)o1
244 to 246 | O=C(Nc1sccc1C(=O)O)c1ccc(Cl)cc1O
184 to 186 | Cc1ccc(NC(N)=S)cc1C
191 to 193 | NC(=NO)c1ccc(N2CCN(c3ccc(F)cc3)CC2)nc1
166 to 168 | O=C(O)C1CCN(S(=O)(=O)c2ccc(Br)s2)CC1
208 to 210 | Cc1csc(-c2ccc(C(=O)O)cc2)n1
108 to 110 | CCOC(=O)c1c(N)sc(C(=O)OC(C)(C)C)c1C
113 to 115 | CC(C)S(=O)(=O)Cc1cccc(N)c1
67 to 69 | CC(=O)c1ccc(N2CCCCC2)c(F)c1
216 to 220 | O=C1Cc2ccc(Br)cc2N1
132 to 134 | NC(=O)C1CCCC(N)C1 (stereo unspecified)
144 to 146 | C/C(=N/O)c1cnn(C)c1
73 to 75 | O=Cc1ccc(-c2cccs2)cc1F
103 to 107 | CN1CCN(S(=O)(=O)c2ccc(Cl)c(N)c2)CC1
304 to 306 | Cc1c(CCC(=O)O)c(=O)[nH]c2c1c(=O)[nH]n2C
44 to 46 | Cc1ccc2ncccc2c1Br
102 to 104 | O=C(O)C1CC(=O)N(c2cccc(C(F)(F)F)c2)C1 (stereo unspecified)

melting point [°C] | SMILES
142 to 144 | CN(C)Cc1cccc(NC(=O)c2nonc2N)c1
123 to 125 | Nc1ccc(Br)cc1-c1nc(C2CC2)no1
232 to 234 | COc1ccc(C(=O)O)nc1Br
156 to 158 | CCN(CC(=O)O)S(=O)(=O)c1cccnc1Cl
116 to 118 | COC(=O)c1ccc(S(C)(=O)=O)cc1
59 to 61 | CCCCNc1ccc(N2CCOCC2)cc1
43 to 45 | COC(=O)C(C)Cn1cc(Br)cn1 (stereo unspecified)
279 to 281 | O=C(O)c1cc2c(s1)-c1cc(F)ccc1SC2
141 to 143 | CCNC(=O)Nc1cccc([N+](=O)[O-])c1
105 to 107 | CC(C)(C)OC(=O)NNCCS(C)(=O)=O
106 to 108 | CCCOc1ccc(OCC(=O)O)cc1
59 to 61 | O=C(CBr)C12CC3CC(CC(C3)C1)C2
163 to 165 | O=C1C(=O)N(Cc2ccc(Cl)cc2)c2ccccc21
110 to 112 | CC(=O)N(Cc1ccc(N)cc1)C(C)C
134 to 136 | Cc1nn(-c2ccccc2)c(C)c1NC(=O)C(C)Cl (stereo unspecified)
152 to 154 | Cc1ccc(C(N)=O)n1C
186 to 188 | CC1CN(Cc2ccc(C(=O)O)cc2)CCO1 (stereo unspecified)
219 to 221 | Cc1cc2cn[nH]c2cc1N
168 to 170 | O=C(O)c1c(Cl)ccc(S(=O)(=O)Cl)c1Cl
120 to 122 | COc1ccc(NS(=O)(=O)c2cccs2)cc1
230 to 238 | Cc1nn(-c2ccc(Cl)cc2)c2sc(C(=O)O)cc12
228 to 230 | COC(=O)c1ccc2nc(N)oc2c1
189 to 191 | CC(C)C(NC(=O)c1ccc(Br)cc1)C(=O)O (stereo unspecified)
90 to 92 | O=C(O)CCCCc1ccc(Br)cc1

melting point [°C] | SMILES
111 to 113 | Fc1ccccc1-c1c[nH]c(C2CCCN2)n1 (stereo unspecified)
167 to 169 | Cc1n[nH]c(-c2ccccn2)n1
118 to 120 | CS(=O)(=O)N1CCCc2cc(C(=O)CCl)ccc21
134 to 136 | O=C(O)CCc1ccccn1
259 to 261 | O=C(O)c1cnc2ccsc2c1
100 to 102 | COC(=O)c1ccc(-c2nc(C3CC3)no2)cc1
239 to 241 | O=C(O)c1cc(Br)cnc1S
173 to 175 | c1cncc(-c2ncn[nH]2)c1
96 to 98 | N#Cc1ccnc(-n2cccn2)c1
85 to 87 | O=C(O)c1nc(OCC(F)(F)F)ccc1Cl
108 to 110 | Cc1ccc(S(=O)(=O)CCC(=O)O)cc1
103 to 106 | COc1ccccc1NC(=O)c1ccc(NC(=O)CCl)cc1
97 to 99 | Cc1csc2ccc(C#N)cc12
161 to 163 | CC(=O)c1ccc(Oc2ccc(C(=O)O)cc2)cc1
205 to 207 | NC(=O)C1CCN(c2ccc(N)cc2)CC1
171 to 173 | Nc1nc2cc(F)c(F)cc2s1
166 to 168 | NNC(=O)CCc1ccccc1O
103 to 105 | COc1ccccc1NCC(=O)NN
205 to 207 | NC(=O)N1CCCC1C(=O)O (stereo unspecified)
182 to 189 | CCN(CC)S(=O)(=O)c1ccc(=O)n(CC(=O)O)c1
161 to 163 | c1cnn(-c2ccc(N3CCNCC3)nn2)c1
110 to 112 | OCCNc1ccncc1
114 to 116 | Nc1ccc(-n2ccnc2)nc1
184 to 186 | NS(=O)(=O)c1cc(F)cc([N+](=O)[O-])c1

SMILES | melting point [°C]
CCCCn1ncc(C(=O)O)c1C | 77 to 79
N#CC1(NC(=O)CCl)CCCC1 | 74 to 76
O=C1C2CC1CN(Cc1ccccc1)C2 | 64 to 66
Cc1ccc2c(C3=CCNCC3)c[nH]c2c1 | 178 to 180
N#Cc1ccc(NC(=O)C(=O)O)cc1Cl | 203 to 205
